Test results published in patent publication US9072734B2, “Quaternary ammonium salt compounds” (Teijin Pharma Limited, priority 2009, dated 2015).
Counter-ions that a name gives are not always drawn.

Columns and labels:
[1] = target: T1, human β2 adrenergic receptor (Homo sapiens, UniProt P07550); assay: Whole-cell cAMP Flashplate assay using CHO-K1 cells stably expressing human β2 adrenergic receptor; type: cell-based; details: cAMP production
T1 construct: expressed in transfected cells; host or cells: CHO-K1
T1 sequence (P07550 whole entry): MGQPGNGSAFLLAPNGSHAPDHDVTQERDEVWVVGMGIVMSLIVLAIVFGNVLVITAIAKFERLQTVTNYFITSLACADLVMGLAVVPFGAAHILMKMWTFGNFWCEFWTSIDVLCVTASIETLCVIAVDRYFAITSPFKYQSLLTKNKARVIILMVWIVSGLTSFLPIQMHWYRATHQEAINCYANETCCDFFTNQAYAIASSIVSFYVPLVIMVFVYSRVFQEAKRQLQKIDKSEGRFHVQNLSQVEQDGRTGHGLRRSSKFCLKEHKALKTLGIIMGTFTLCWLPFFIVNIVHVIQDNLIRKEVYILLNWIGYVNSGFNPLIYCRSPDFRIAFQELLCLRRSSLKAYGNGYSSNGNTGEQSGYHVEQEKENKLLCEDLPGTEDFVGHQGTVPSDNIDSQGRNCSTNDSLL

[2] = target: T2, human M3 muscarinic receptor (Homo sapiens, UniProt P20309); assay: Inhibitory effect on methacholine-induced calcium influx, FLIPR assay, CHO-K1 cells stably expressing the human M3 muscarinic receptor; type: cell-based; details: inhibition of calcium influx induced by methacholine
T2 construct: expressed in transfected cells; host or cells: CHO-K1
T2 sequence (P20309 whole entry): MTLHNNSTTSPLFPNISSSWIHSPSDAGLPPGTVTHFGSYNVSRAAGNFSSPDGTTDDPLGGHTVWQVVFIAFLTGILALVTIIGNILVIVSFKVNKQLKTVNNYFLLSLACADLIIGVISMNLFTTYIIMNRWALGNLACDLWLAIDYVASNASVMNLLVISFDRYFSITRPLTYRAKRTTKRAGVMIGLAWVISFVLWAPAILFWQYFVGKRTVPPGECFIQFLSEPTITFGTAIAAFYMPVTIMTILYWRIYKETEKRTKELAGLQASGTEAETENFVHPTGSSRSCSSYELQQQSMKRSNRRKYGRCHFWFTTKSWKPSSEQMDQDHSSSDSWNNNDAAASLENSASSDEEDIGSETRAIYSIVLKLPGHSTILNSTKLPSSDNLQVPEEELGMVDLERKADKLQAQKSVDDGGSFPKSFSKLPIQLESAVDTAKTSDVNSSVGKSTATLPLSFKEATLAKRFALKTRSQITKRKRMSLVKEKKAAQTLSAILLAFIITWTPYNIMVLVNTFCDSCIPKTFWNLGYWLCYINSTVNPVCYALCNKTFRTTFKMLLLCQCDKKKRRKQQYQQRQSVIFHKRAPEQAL
Summary of the method: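 Dye-loaded hM3 CHO-K1 cells were preincubated 180 s with compound solutions prepared at 10 two-fold concentrations (0.01–1000 nM). A 30 nM methacholine solution was then added. Fluorescence was traced for 170 s; max−min signal gave % inhibition against agonist and no-agonist controls, and IC50 came from a four-parameter logistic fit.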

[3] = tested on: acetylcholine-induced bronchoconstriction in guinea pigs; assay: Effects on acetylcholine-induced bronchoconstriction in guinea pigs; type: in vivo, guinea pig; details: Cavia porcellus; 24 hours after 25 μg/kg of the compounds were administered; read-out: percentage of bronchoconstriction suppression with respect to the acetylcholine stimulation
Method: These in vivo assays are used to evaluate the bronchoprotective effects based on the M3 muscarinic receptor antagonist activity and the β2 adrenergic receptor agonist activity of test compounds. Hartley male guinea pigs (Nippon SLC, Inc.) weighing about 400-500 g were used. The animals were anesthetized by inhalation of Fluothane (Takeda Pharmaceutical Company Limited) in a plastic box. The test compounds were dissolved in physiological saline containing DMSO, and administered through the nasal cavity into the trachea at a dose of 0.04-25 μg/kg and at a volume of 0.4 mL/kg. For control animals, solvent without a test compound was administered. In general, animals awake several minutes after completion of the administration. The animals were anesthetized with an intraperitoneal administration of 33% urethane/0.8% α-chloralose at a dose of 3 mL/kg. In order to intravenously administer acetylcholine or histamine, a catheter was inserted into the carotid artery. In order to measure artificial respiration and airway ventilation pressure, a cannula was inserted into the trachea. Artificial respiration was applied to the animals at a volume of 10 mL/kg and at a frequency of 60/minute, using a ventilator (Harvard Apparatus). The airway ventilation pressure was measured by the Konzett-Roessler method using a general respiratory function analysis system (M.I.P.S). Prior to administration of acetylcholine or histamine, the airway ventilation pressure was measured and baseline values were recorded. Then, physiological saline was administered through the carotid artery catheter at a volume of 0.4 mL/kg, and the airway ventilation pressure was measured. Bronchoconstrictor response was induced by administering acetylcholine (40 μg/kg, 0.4 mL/kg) or histamine (15 μg/kg, 0.4 mL/kg) through the carotid artery catheter one hour after the administration of the test compounds, and the airway ventilation pressure at the maximum contractile response was recorded. In addition, in order to evaluate duration of action of the test compounds, the above-mentioned dose of acetylcholine or histamine was administered, 1 hour, 6 hours, 12 hours, 18 hours, and 24 hours after the administration of test compounds, and the airway ventilation pressure was measured in the same way. The percentage of suppression by the test compounds with respect to the airway contractile response was calculated according to the following formula. (%) Percentage of the airway constriction suppression=(Airway ventilation pressure of test compound-dosed and acetylcholine- or histamine-dosed animals−Baseline value)/(Airway ventilation pressure of acetylcholine- or histamine-dosed animals−Baseline value)×100
The 50% inhibitory doses (ID50 values) of the test compounds were analyzed by a sigmoidal logistic model using XLfit4 (IDBS, Ltd.) for the percentage of the bronchoconstriction suppression at different doses of the test compounds.

Row | SMILES | EC50 [1] [nM] | IC50 [2] [nM] | inhibition in vivo at 0.025 mg/kg [3] [%]
1 | C[N+]1(C)CCC(OC(=O)Nc2cc(CCCC(=O)Nc3ccc(CNC[C@H](O)c4ccc(O)c5[nH]c(=O)ccc45)cc3Cl)ccc2-c2ccccc2)CC1 [Example 19, 4-({[5-(3-{[2-chloro-4-({[(2R)-2-hydroxy-2-(8-hydroxy-2-oxo-1,2-dihydroquinolin-5-yl)ethyl]amino}methyl)phenyl]carbamoyl}propyl)-2-phenylphenyl]carbamoyl}oxy)-1,1-dimethylpiperidin-1-ium trifluoroacetate] | 1.2 | 8.7 | ≥ 50
2 | COc1cc(NC(=O)CCCc2ccc(-c3ccccc3)c(NC(=O)OC3CC[N+](C)(C)CC3)c2)c(Cl)cc1CNC[C@H](O)c1ccc(O)c2[nH]c(=O)ccc12 [Example 18, 4-({[5-(3-{[2-chloro-4-({[(2R)-2-hydroxy-2-(8-hydroxy-2-oxo-1,2-dihydroquinolin-5-yl)ethyl]amino}methyl)-5-methoxyphenyl]carbamoyl}propyl)-2-phenylphenyl]carbamoyl}oxy)-1,1-dimethylpiperidin-1-ium trifluoroacetate] | 0.6 | 8.9 | ≥ 50
3 | COc1cc(NC(=O)CCc2ccc(-c3ccccc3)c(NC(=O)OC3CC[N+](C)(C)CC3)c2)c(Cl)cc1CNC[C@H](O)c1ccc(O)c2[nH]c(=O)ccc12 [Example 2, 4-({[5-(2-{[2-chloro-4-({[(2R)-2-hydroxy-2-(8-hydroxy-2-oxo-1,2-dihydroquinolin-5-yl)ethyl]amino}methyl)-5-methoxyphenyl]carbamoyl}ethyl)-2-phenylphenyl]carbamoyl}oxy)-1,1-dimethylpiperidin-1-ium trifluoroacetate] | 1.1 | 19.3 | ≥ 50
4 | COc1cc(NC(=O)CCc2ccc(-c3ccccc3)c(NC(=O)OC3CC[N+](C)(C)CC3)c2)ccc1CNC[C@H](O)c1ccc(O)c2[nH]c(=O)ccc12 [Example 6, 4-({[5-(2-{[4-({[(2R)-2-hydroxy-2-(8-hydroxy-2-oxo-1,2-dihydroquinolin-5-yl)ethyl]amino}methyl)-3-methoxyphenyl]carbamoyl}ethyl)-2-phenylphenyl]carbamoyl}oxy)-1,1-dimethylpiperidin-1-ium trifluoroacetate] | 1.7 | 9 | ≥ 50
5 | C[N+]1(C)CCC(OC(=O)Nc2cc(CCC(=O)Nc3ccc4cc(CNC[C@H](O)c5ccc(O)c6[nH]c(=O)ccc56)ccc4c3)ccc2-c2ccccc2)CC1 [Example 12, 4-({[5-(2-{[6-({[(2R)-2-hydroxy-2-(8-hydroxy-2-oxo-1,2-dihydroquinolin-5-yl)ethyl]amino}methyl)naphthalen-2-yl]carbamoyl}ethyl)-2-phenylphenyl]carbamoyl}oxy)-1,1-dimethylpiperidin-1-ium trifluoroacetate] | 4.6 | 26.4 | ≥ 50

The next lines start with results.

Row | EC50 [1] [nM] | IC50 [2] [nM] | SMILES | inhibition in vivo at 0.025 mg/kg [3] [%]
6 | 2.6 | 16.8 | COc1cc(NC(=O)CCCc2ccc(-c3ccccc3)c(NC(=O)OC3CC[N+](C)(C)CC3)c2)ccc1CNC[C@H](O)c1ccc(O)c2[nH]c(=O)ccc12 [Example 20, 4-({[5-(3-{[4-({[(2R)-2-hydroxy-2-(8-hydroxy-2-oxo-1,2-dihydroquinolin-5-yl)ethyl]amino}methyl)-3-methoxyphenyl]carbamoyl}propyl)-2-phenylphenyl]carbamoyl}oxy)-1,1-dimethylpiperidin-1-ium trifluoroacetate] | ≥ 50
7 | 1.5 | 36.3 | C[N+]1(C)CCC(OC(=O)Nc2cc(CCCOc3ccc(CCNC[C@H](O)c4ccc(O)c5[nH]c(=O)ccc45)cc3)ccc2-c2ccccc2)CC1 [Example 77, 4-{[(5-{3-[4-(2-{[(2R)-2-hydroxy-2-(8-hydroxy-2-oxo-1,2-dihydroquinolin-5-yl)ethyl]amino}ethyl)phenoxy]propyl}-2-phenylphenyl)carbamoyl]oxy}-1,1-dimethylpiperidin-1-ium trifluoroacetate] | ≥ 50
8 | 0.4 | 19 | COc1cc(NC(=O)CCCc2ccc(-c3ccccc3)c(NC(=O)OC3CC[N+](C)(C)CC3)c2)c(Br)cc1CNC[C@H](O)c1ccc(O)c2[nH]c(=O)ccc12 [Example 25, 4-({[5-(3-{[2-bromo-4-({[(2R)-2-hydroxy-2-(8-hydroxy-2-oxo-1,2-dihydroquinolin-5-yl)ethyl]amino}methyl)-5-methoxyphenyl]carbamoyl}propyl)-2-phenylphenyl]carbamoyl}oxy)-1,1-dimethylpiperidin-1-ium trifluoroacetate] | ≥ 50
9 | 0.6 | 53.7 | C[N+]1(C)[C@@H]2CC(OC(=O)Nc3ccc(CCCC(=O)Nc4ccc(CNC[C@H](O)c5ccc(O)c6[nH]c(=O)ccc56)cc4)cc3-c3ccccc3)C[C@H]1[C@@H]1O[C@@H]12 (stereo partly drawn) [Example 53, (1R,2R,4S,5S,7S)-7-({[4-(3-{[4-({[(2R)-2-hydroxy-2-(8-hydroxy-2-oxo-1,2-dihydroquinolin-5-yl)ethyl]amino}methyl)phenyl]carbamoyl}propyl)-2-phenylphenyl]carbamoyl}oxy)-9,9-dimethyl-3-oxa-9-azatricyclo[3.3.1.0^2,4]nonan-9-ium trifluoroacetate] | 
